Assay results: US9695191B2, “Conformationally constrained, fully synthetic macrocyclic compounds” (POLYPHOR AG, priority 2009, dated 2017)

Columns and labels:
[1] = Metabolic stability, human microsomes; type: in vitro ADME; details: 37° C.; for Metabolic Stability 60 min hum: % of the initial 0 minutes value at 60 min, 10 μM; for Metabolic Stability T ½ [min] hum: 10 μM compound, 1 mg/ml microsomal protein, sampling up to 60 min
Description: (§1) Microsomes from a human 50 donor mixed gender pool and 1:1 mixtures of microsomes from CD-1 mouse single-gender pools are purchased from Celsis (Belgium). The enzymatic reaction is performed in a buffer containing an NADPH regeneration system and microsomes with the following end concentrations: 100 mM potassium phosphate buffer (all from Sigma), 1 mg/mL glucose-6-phosphate, 1 mg/mL β-nicotinamide adenine dinucleotide phosphate (NADP), 0.65 mg/mL magnesium chloride, 0.8 units/mL of glucose-6-phosphate dehydrogenase (prediluted with 5 mM citrate buffer), 10 μM compound and 1 mg/ml microsomal protein. Compounds are incubated at 37° C. in duplicates and samples are taken after 0, 20 and 60 minutes. After acetonitrile precipitation (2 volumes) and HPLC/MS/MS analysis metabolic turnover is expressed in % of the initial 0 minutes value and half life T½ (min) is calculated. Verapamil for human and propranolol for mouse are used as reference and are assayed with every experimental set. • F. P. Guengerich, Analysis and Characterization of Enzymes; in: Principles and Methods of Toxicology; A. W. Hayes (Ed.) Raven Press: New York, 1989, 777-813. • R. Singh et al., In vitro metabolism of a potent HIV-protease inhibitor (141W94) using rat, monkey and human liver S9, Rapid Commun. Mass Spectrom. 1996, 10, 1019-1026. 5. Results

[2] = Metabolic stability, CD-1 mouse microsomes; type: in vitro ADME; details: 37° C.; for Metabolic Stability 60 min mouse: % of the initial 0 minutes value at 60 min, 10 μM; for Metabolic Stability T ½ [min] mouse: 10 μM compound, 1 mg/ml microsomal protein, sampling up to 60 min
Description: as §1

[3] = human, 10 μM
Description: (§2) Example compounds were dissolved in DMSO/H2O 90:10 to a final concentration of 10 mM for plasma stability determination and metabolic stability determination.
(§3) Human plasma (3-5 donors, Blutspendedienst SRK, Basel) and CD-1 mouse plasma (mixed gender pool>50 animals, Innovative Research, CA, USA) are both sodium citrate stabilized. The assay is performed in triplicates at 10 μM compound concentration and 37° C. Samples are taken at 0, 15, 60, and 240 minutes and stopped by precipitation with 2 volumes of acetonitrile. The supernatant is collected, evaporated and reconstituted in a 5% acetonitrile solution to be analyzed by HPLC/MS/MS. The resulting peak area counts are expressed in percent of the 0 value and used to determine the endpoint stability in % and the half life T½ in minutes. In order to monitor assay integrity the degradation of propantheline is assayed with every experimental set

[4] = both, CD-1, mouse, 10 μM
Description: as §2, §3

Row | Metabolic Stability 60 min hum [1] | Metabolic Stability 60 min mouse [2] | Plasma Stability 240 min hum [3] | Plasma Stability 240 min mouse [4] | Metabolic Stability T ½ [min] hum [1] | Metabolic Stability T ½ [min] mouse [2] | Compound
1 | 100% | 100% | 77% | 100% | 60 min | 60 min | CC(=O)N[C@H]1C[C@H]2COc3ccc(F)cc3C(=O)N(C)[C@H](C(=O)N3CCCC3)CCC(=O)N(C)CC(=O)N2C1 [Ex. 37, N-[(2S,11S,19aS)-15-fluoro-7,12-dimethyl-5,8,13-trioxo-11-(1-pyrrolidinylcarbonyl)-2,3,6,7,8,9,10,11,12,13,19,19a-dodecahydro-1H,5H-pyrrolo[2,1-c][1,4,7,12]benzoxatriazacyclopentadecin-2-yl]acetamide]
2 | 100% | 98% | 82% | 89% | – | – | CCN(CC)[C@H]1C[C@H]2COc3ccc(F)cc3C(=O)N(C)[C@H](C(=O)N3CCCC3)CCC(=O)N(C)CC(=O)N2C1 [Ex. 43, (2S,11S,19aS)-2-(diethylamino)-15-fluoro-7,12-dimethyl-11-(1-pyrrolidinylcarbonyl)-2,3,6,7,9,10,11,12,19,19a-decahydro-1H,5H-pyrrolo[2,1-c][1,4,7,12] benzoxatriazacyclopentadecine-5,8,13-trione]
3 | 78% | 100% | 65% | 100% | – | – | CCCCC(=O)N[C@@H]1C[C@H]2COc3ccc(F)cc3C(=O)N(C)[C@H](C(=O)N(C)CCN(C)C)CCC(=O)N(C)CC(=O)N2C1 [Ex. 78, (2R,11S,19aS)-N-[2-(dimethylamino)ethyl]-15-fluoro-N,7,12-trimethyl-5,8,13-trioxo-2-(pentanoylamino)-2,3,6,7,8,9,10,11,12,13,19,19a-dodecahydro-1H,5H-pyrrolo[2,1-c][1,4,7,12]benzoxatriazacyclopentadecine-11-carboxamide]
4 | 97% | 100% | 100% | 78% | – | – | CN1CC(=O)N2C[C@@H](NC(=O)CN3CCCC3)C[C@H]2COc2ccc(F)cc2C(=O)N(C)[C@@H](C(=O)N2CCCC2)CCC1=O [Ex. 98, N-[(2S,11R,19aS)-15-fluoro-7,12-dimethyl-5,8,13-trioxo-11-(1-pyrrolidinylcarbonyl)-2,3,6,7,8,9,10,11,12,13,19,19a-dodecahydro-1H,5H-pyrrolo[2,1-c][1,4,7,12]benzoxatriazacyclopentadecin-2-yl]-2-(1-pyrrolidinyl)acetamide]

Further lines, the molecule ahead of its results:

Row | Compound | Metabolic Stability 60 min hum [1] | Metabolic Stability 60 min mouse [2] | Plasma Stability 240 min hum [3] | Plasma Stability 240 min mouse [4] | Metabolic Stability T ½ [min] hum [1] | Metabolic Stability T ½ [min] mouse [2]
5 | CN(C)CCNC(=O)[C@@H]1CCC(=O)N(C)CC(=O)N2C[C@@H](NC(=O)Cc3c[nH]c4ccccc34)C[C@H]2COc2ccc(F)cc2C(=O)N1C [Ex. 11, (2S,11S,19aS)-N-[2-(dimethylamino)ethyl]-15-fluoro-2-{[2-(1H-indol-3-yl)acetyl]amino}-7,12-dimethyl-5,8,13-trioxo-2,3,6,7,8,9,10,11,12,13,19,19a-dodecahydro-1H,5H-pyrrolo [2,1-c][1,4,7,12]benzoxatriazacyclopentadecine-11-carboxamide] | 74% | 77% | 100% | 100% | – | –
6 | CN(C)CCNC(=O)[C@@H]1CCC(=O)N(C)CC(=O)N2C[C@@H](NC(=O)Cc3cccc4ccccc34)C[C@H]2COc2ccc(F)cc2C(=O)N1C [Ex. 49, (2S,11S,19aS)-N-[2-(dimethylamino)ethyl]-15-fluoro-7,12-dimethyl-2-{[2-(1-naphthyl)acetyl]amino}-5,8,13-trioxo-2,3,6,7,8,9,10,11,12,13,19,19a-dodecahydro-1H,5H-pyrrolo[2,1-c][1,4,7,12]benzoxatriazacyclopentadecine-11-carboxamide] | 10% | 83% | 83% | 96% | – | –
7 | CN1CC(=O)N2C[C@@H](N)C[C@H]2COc2ccc(F)cc2C(=O)N(C)[C@@H](C(=O)NCc2ccc3ccccc3c2)CCC1=O [Ex. 91, (2S,11R,19aS)-2-amino-15-fluoro-7,12-dimethyl-N-(2-naphthylmethyl)-5,8,13-trioxo-2,3,6,7,8,9,10,11,12,13,19,19a-dodecahydro-1H,5H-pyrrolo[2,1-c][1,4,7,12] benzoxatriazacyclopentadecine-11-carboxamide] | 91% | 95% | 96% | 88% | – | –
8 | CNC(=O)[C@H]1CCC(=O)N(C)CC(=O)N2C[C@@H](NC(=O)Cc3ccc4ccccc4c3)C[C@H]2COc2ccc(F)cc2C(=O)N1C [Ex. 93, (2S,11R,19aS)-15-fluoro-N,7,12-trimethyl-2-{[2-(2-naphthyl)acetyl]amino}-5,8,13-trioxo-2,3,6,7,8,9,10,11,12,13,19,19a-dodecahydro-1H,5H-pyrrolo[2,1-c][1,4,7,12] benzoxatriazacyclopentadecine-11-carboxamide] | 1% | 15% | 100% | 100% | – | –
9 | CN1CC(=O)N2C[C@@H](NC(=O)CCC(=O)O)C[C@H]2COc2ccc(F)cc2C(=O)N(C)[C@@H](C(=O)NCc2ccc3ccccc3c2)CCC1=O [Ex. 95, 4-[((2S,11R,19aS)-15-fluoro-7,12-dimethyl-11-{[(2-naphthylmethyl)amino]carbonyl}-5,8,13-trioxo-2,3,6,7,8,9,10,11,12,13,19,19a-dodecahydro-1H,5H-pyrrolo [2,1-c][1,4,7,12]benzoxatriazacyclopentadecin-2-yl)amino]-4-oxobutanoic acid] | 76% | 94% | 100% | 93% | 60 min | 60 min
10 | CCCCCCCCCC(=O)N[C@H]1CN(C)C(=O)c2cccc(c2)OC[C@@H]2C[C@H](NC(=O)Cc3c[nH]c4ccccc34)CN2C(=O)CN(C)C1=O [Ex. 213, N-[(4S,6S,13S)-6-{[2-(1H-indol-3-yl)acetyl]amino)-11,15-dimethyl-9,12,16-trioxo-2-oxa-8,11,15-triazatricyclo[15.3.1.0^4,8]henicosa-1(21),17,19-trien-13-yl]decanamide] | 0% | 4% | – | – | – | –
11 | CN1CC(=O)N2C[C@H](NC(=O)Cc3ccc4ccccc4c3)C[C@H]2COc2ccc(cc2)C(=O)N(C)[C@H](C(=O)N2CCCC2)CCC1=O [Ex. 264, N-[(4S,6R,15S)-11,16-dimethyl-9,12,17-trioxo-15-(1-pyrrolidinylcarbonyl)-2-oxa-8,11,16-triazatricyclo[16.2.2.0^4,8]docosa-1(20),18,21-trien-6-yl]-2-(2-naphthyl)acetamide] | – | 32% | 94% | 88% | – | –
